Experimental data as given in US20050208197A1, “Refreshment capable of stimulating movement of digestive tract” (priority 2002, published 2005).

Assays:
[1] = target: T1, human muscarinic M3 receptors (Homo sapiens, UniProt P20309); experiment: Test for binding activity to muscarinic M3 receptors ([3H]4-DAMP displacement)
T1 construct: expressed in transfected cells; host or cells: CHO (Chinese hamster ovary) cells, membrane preparation
Protocol: The mixture was then incubated at 22° C. for 60 min. Subsequently, the reaction mixture was filtered through a glass fiber filter (GF/B, PACKARD) while aspirated. Once the reaction came to an end, the mixture was washed several times with ice-chilled buffer. A scintillation cocktail (Microscint O, PACKARD) was then added to the filter, and the residual radioactivity was measured by a liquid scintillation counter (Topcount, PACKARD).

[2] = Water solubility of the isolated active substances; format: physicochemical
From the text: In another aspect, the present invention provides a method for separating/purifying the active substances α and β. Specifically, the method includes freeze-drying beer, which serves as the starting material, to remove volatile components and collect non-volatile components; subjecting the non-volatile components to a chromatography using synthetic absorbent to remove unadsorbed components and collect adsorbed components in a crude fraction containing concentrated active substances; subjecting the crude fraction to a weakly acidic cation exchange chromatography to remove unadsorved components; eluting the active substances with acidic methanol (methanol/hydrochloric acid); subjecting the eluate to gel filtration chromatography using 0.01N hydrochloric acid to obtain a purified fraction; subjecting the purified fraction to C18 high performance liquid chromatography (ODS-HPLC) for further purification to isolate the two active substances. The active substances so obtained were water-soluble.

stomach emptying in mice = experiment: Stomach emptying in mice (phenol red test feed); format: in vivo; conditions: oral, dose-dependent, P<0.05 vs distilled water, FIG. 15
Protocol: Using a stomach tube, ddY line mice (10 animals in each group) were orally administered each of distilled water, the active substances α and β following an 18-hour fasting period. 60 minutes after administration, each animal was orally administered a test feed (0.2 mL/animal; 1.5% methylcellulose solution containing 0.05% phenol red) using the same technique. After 15 minutes, the animals were sacrificed by cervical dislocation and the stomachs were removed. The stomachs, along with their contents, were then homogenized in 10 mL 0.1N NaOH and the homogenates were allowed to stand for 1 hour at room temperature. To 1 mL of the resulting supernatant, 0.1 mL 20% trichloroacetic acid was added and the supernatant was centrifuged to precipitate proteins. Subsequently, 0.5 ml of the resulting supernatant was collected and 0.5 mL 0.5N NaOH was added to color the solution. The absorbance of the solution at 560 nm was measured to determine the amount of phenol red remaining in the stomach. The rate of stomach emptying was determined by the following equation: Stomach emptying rate (%)=(A−B)/A×100 where ‘A’ is the amount of phenol red in the stomach immediately after the administration of the test feed; and ‘B’ is the amount of phenol red remaining in the stomach 15 minutes after the administration of the test feed. 2. Results

T1 sequence (P20309 whole entry): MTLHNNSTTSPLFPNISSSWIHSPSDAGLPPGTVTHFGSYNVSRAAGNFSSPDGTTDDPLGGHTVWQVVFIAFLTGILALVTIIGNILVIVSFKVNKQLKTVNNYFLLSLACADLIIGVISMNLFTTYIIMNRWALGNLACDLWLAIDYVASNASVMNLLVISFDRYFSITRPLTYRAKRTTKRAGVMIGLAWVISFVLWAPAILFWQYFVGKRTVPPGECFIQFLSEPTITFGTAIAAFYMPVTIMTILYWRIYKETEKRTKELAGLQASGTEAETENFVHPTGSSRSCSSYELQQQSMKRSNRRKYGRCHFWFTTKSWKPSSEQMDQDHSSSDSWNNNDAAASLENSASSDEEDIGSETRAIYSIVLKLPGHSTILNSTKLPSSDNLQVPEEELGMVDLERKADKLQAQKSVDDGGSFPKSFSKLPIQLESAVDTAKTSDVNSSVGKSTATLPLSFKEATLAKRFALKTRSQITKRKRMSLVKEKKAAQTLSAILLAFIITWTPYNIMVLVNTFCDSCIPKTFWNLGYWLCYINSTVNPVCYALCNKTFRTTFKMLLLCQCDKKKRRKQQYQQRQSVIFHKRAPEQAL

| Compound | IC50 [1] [nM] | solubility in water [2] | stimulation of stomach emptying (stomach emptying in mice; 0.1 and 0.3 mg/kg) | stimulation of stomach emptying (stomach emptying in mice; 0.3 and 1.0 mg/kg) |
| --- | --- | --- | --- | --- |
| N=C(N)NCCCCNC(=O)/C=C/c1ccc2c(c1)[C@H](C(=O)NCCCCNC(=N)N)[C@H](c1ccc(O)cc1)O2 [active substance α] | 1180 | water-soluble | significantly stimulated stomach emptying |  |
| N=C(N)NCCCCNC(=O)/C=C/c1ccc2c(c1)[C@@H](C(=O)NCCCCNC(=N)N)[C@H](c1ccc(O)cc1)O2 [active substance β] | 4180 | water-soluble |  | significantly stimulated stomach emptying |
